Several values for one entry are separate records, joined by “and”; a condition that tells them apart may be missing. Identical values can stand only once.

The values that follow come from paper PMC11062922 (Nature Chemical Biology, 2023).

One assay has as its target T1, RIPK2 (Homo sapiens, UniProt O43353).
T1 construct: endogenous in cells
As to the kind of experiment: Kinobeads full dose-response competition binding: RIPK2. To be noted: Gene Name RIPK2.

A further assay deals with T2, TGFBR2 (Homo sapiens, UniProt P37173).
T2 construct: endogenous in cells
T2 sequence (P37173 23-567): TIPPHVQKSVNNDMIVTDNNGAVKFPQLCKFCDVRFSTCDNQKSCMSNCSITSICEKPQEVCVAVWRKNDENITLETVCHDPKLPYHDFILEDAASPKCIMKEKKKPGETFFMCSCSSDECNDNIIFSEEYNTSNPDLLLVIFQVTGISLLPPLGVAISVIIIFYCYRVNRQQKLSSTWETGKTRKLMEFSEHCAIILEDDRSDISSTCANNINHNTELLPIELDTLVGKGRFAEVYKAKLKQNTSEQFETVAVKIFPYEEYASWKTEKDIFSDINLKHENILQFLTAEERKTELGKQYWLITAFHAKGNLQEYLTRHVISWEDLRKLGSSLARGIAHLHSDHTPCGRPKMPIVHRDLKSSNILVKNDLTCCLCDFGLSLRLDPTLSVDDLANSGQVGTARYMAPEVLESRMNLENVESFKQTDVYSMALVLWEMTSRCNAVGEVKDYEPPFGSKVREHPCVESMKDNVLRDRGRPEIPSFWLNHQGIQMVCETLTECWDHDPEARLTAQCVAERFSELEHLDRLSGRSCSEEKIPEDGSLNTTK
As to the kind of experiment: Kinobeads full dose-response competition binding: TGFBR2. To be noted: Gene Name TGFBR2.

The target of a further assay is T3, HSP90B1 (Homo sapiens, UniProt P14625).
T3 construct: endogenous in cells
T3 sequence (P14625 22-803): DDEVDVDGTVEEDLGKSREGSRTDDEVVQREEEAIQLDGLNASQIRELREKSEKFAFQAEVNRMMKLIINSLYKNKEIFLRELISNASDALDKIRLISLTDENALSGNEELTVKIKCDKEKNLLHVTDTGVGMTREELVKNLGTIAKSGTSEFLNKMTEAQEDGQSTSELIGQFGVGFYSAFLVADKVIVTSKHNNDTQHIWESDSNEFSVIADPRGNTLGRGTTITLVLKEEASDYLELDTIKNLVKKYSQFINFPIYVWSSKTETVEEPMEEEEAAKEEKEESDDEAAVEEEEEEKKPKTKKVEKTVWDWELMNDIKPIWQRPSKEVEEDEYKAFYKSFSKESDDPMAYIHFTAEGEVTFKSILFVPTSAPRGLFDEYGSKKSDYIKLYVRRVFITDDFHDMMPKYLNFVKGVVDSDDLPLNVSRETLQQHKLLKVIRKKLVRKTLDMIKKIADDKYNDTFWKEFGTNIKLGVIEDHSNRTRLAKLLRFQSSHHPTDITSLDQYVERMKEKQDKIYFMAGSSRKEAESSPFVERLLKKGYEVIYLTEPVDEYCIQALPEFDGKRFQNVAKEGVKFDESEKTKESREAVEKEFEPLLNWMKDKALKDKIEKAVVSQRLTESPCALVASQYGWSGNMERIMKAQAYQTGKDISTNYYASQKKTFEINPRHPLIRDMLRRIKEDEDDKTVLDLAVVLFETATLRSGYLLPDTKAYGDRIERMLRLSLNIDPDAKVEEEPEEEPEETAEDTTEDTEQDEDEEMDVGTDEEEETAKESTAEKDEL
The assay can be described thus: Kinobeads two-dose competition binding: HSP90B1. To be noted: read-out: Lestaurtinib Drugmatrix value, Gene Name HSP90B1.

For the next assay, the target named is T4, ERN2 (Homo sapiens, UniProt Q76MJ5).
T4 construct: endogenous in cells
T4 sequence (Q76MJ5 35-926): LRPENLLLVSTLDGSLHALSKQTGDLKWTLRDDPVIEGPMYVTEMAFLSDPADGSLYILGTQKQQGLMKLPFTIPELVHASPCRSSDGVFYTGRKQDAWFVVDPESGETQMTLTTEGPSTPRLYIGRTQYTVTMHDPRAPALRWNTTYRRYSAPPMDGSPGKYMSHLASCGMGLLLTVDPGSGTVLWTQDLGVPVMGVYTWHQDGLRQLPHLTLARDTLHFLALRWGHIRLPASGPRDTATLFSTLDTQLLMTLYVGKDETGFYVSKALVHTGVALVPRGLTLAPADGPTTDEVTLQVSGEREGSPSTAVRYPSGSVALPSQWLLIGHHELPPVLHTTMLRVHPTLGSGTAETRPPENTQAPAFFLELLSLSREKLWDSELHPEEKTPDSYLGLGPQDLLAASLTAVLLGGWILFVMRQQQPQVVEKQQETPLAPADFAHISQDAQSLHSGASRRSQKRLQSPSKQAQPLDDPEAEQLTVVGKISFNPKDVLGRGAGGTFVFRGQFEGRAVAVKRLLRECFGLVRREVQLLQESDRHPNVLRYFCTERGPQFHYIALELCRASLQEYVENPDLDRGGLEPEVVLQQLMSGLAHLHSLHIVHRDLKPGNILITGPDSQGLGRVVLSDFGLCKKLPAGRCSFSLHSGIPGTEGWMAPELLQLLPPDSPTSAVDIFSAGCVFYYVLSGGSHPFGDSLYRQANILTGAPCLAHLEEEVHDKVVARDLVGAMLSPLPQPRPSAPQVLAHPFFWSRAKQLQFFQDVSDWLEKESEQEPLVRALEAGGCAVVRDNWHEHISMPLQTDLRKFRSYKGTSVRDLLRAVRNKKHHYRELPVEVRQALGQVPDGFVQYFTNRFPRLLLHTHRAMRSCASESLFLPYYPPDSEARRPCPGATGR
The assay can be described thus: Kinobeads two-dose competition binding: ERN2. To be noted: read-out: Lestaurtinib Drugmatrix value, Gene Name ERN2.

The target in another assay is T5, ACAD11 (Homo sapiens, UniProt Q709F0).
T5 construct: endogenous in cells
T5 sequence (Q709F0 1-780): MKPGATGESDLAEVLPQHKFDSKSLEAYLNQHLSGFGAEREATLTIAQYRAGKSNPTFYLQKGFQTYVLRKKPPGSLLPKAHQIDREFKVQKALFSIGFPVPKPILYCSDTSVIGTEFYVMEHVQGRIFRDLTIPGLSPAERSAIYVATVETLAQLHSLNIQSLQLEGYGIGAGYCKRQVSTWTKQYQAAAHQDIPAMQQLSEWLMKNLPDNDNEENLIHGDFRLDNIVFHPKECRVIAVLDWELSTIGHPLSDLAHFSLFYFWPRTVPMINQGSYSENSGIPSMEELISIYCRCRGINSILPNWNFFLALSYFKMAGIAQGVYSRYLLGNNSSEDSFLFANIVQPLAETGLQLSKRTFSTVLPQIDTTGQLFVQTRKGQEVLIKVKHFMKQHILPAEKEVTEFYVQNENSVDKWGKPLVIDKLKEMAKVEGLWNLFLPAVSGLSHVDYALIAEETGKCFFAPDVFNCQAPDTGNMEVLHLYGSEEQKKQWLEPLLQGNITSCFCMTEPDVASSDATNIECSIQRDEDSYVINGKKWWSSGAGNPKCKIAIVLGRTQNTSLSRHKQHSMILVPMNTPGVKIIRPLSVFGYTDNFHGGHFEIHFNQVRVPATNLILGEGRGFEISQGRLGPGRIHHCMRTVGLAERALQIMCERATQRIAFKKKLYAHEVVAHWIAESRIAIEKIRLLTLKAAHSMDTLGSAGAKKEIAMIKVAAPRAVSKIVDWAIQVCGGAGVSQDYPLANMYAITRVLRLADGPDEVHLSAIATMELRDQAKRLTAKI
The assay can be described thus: Kinobeads two-dose competition binding: ACAD11. To be noted: read-out: Lestaurtinib Drugmatrix value, Gene Name ACAD11.

The target in the next assay is T6, PAK6 (Homo sapiens, UniProt Q9NQU5).
T6 construct: a mixture of lysates from five cancer cell lines; endogenous in cells
T6 sequence (Q9NQU5 whole entry): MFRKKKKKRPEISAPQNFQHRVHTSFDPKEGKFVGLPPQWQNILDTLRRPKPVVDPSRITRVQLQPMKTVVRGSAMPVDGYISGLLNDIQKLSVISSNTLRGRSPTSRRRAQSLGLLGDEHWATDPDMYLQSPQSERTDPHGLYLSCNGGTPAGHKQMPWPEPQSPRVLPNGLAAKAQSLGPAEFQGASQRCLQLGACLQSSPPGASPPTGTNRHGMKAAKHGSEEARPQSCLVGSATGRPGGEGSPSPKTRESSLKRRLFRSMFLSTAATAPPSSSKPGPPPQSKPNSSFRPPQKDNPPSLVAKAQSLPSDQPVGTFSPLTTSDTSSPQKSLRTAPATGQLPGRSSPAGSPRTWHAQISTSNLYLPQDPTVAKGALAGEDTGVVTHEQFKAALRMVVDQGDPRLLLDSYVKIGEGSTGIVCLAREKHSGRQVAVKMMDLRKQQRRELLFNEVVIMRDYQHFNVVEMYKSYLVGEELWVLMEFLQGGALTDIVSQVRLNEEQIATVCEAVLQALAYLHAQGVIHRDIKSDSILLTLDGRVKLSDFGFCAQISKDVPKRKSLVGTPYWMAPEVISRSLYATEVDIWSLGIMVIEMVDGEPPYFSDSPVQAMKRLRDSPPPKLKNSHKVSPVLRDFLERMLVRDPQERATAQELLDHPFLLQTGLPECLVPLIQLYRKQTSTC
As to the kind of experiment: Kinobeads competition binding, Lestaurtinib control replicates: PAK6. To be noted: read-out: Lestaurtinib Drugmatrix value; Gene Name PAK6; one column per experiment number and replicate (R1-R3).

In the next assay the target is T7, CSK (Homo sapiens, UniProt P41240).
T7 construct: endogenous in cells
As to the kind of experiment: Kinobeads two-dose competition binding: CSK. To be noted: read-out: Lestaurtinib Drugmatrix value, Gene Name CSK.

A further assay deals with T8, PRKAR2A (Homo sapiens, UniProt P13861).
T8 construct: to maximize the representation of endogenous proteins; endogenous in cells
The assay can be described thus: Kinobeads competition binding, Lestaurtinib control replicates: PRKAR2A. To be noted: read-out: Lestaurtinib Drugmatrix value; Gene Name PRKAR2A; one column per experiment number and replicate (R1-R3).

The target of a further assay is T9, FYN (Homo sapiens, UniProt P06241).
T9 construct: endogenous in cells
As to the kind of experiment: Kinobeads two-dose competition binding: FYN. To be noted: read-out: Lestaurtinib Drugmatrix value, Gene Name FYN; target FYN; each column = one Lestaurtinib control replicate (batch_R1-R3).

Another assay has as its target T10, PRKAG2 (Homo sapiens, UniProt Q9UGJ0).
T10 construct: endogenous in cells
As to the kind of experiment: Kinobeads competition binding, Lestaurtinib control replicates: PRKAG2. To be noted: read-out: Lestaurtinib Drugmatrix value, PRKAG2; Gene Name PRKAG2; one column per experiment number and replicate (R1-R3).

In the next assay the target is T11, EPHA1 (Homo sapiens, UniProt P21709).
T11 construct: endogenous in cells
T11 sequence (P21709 26-976): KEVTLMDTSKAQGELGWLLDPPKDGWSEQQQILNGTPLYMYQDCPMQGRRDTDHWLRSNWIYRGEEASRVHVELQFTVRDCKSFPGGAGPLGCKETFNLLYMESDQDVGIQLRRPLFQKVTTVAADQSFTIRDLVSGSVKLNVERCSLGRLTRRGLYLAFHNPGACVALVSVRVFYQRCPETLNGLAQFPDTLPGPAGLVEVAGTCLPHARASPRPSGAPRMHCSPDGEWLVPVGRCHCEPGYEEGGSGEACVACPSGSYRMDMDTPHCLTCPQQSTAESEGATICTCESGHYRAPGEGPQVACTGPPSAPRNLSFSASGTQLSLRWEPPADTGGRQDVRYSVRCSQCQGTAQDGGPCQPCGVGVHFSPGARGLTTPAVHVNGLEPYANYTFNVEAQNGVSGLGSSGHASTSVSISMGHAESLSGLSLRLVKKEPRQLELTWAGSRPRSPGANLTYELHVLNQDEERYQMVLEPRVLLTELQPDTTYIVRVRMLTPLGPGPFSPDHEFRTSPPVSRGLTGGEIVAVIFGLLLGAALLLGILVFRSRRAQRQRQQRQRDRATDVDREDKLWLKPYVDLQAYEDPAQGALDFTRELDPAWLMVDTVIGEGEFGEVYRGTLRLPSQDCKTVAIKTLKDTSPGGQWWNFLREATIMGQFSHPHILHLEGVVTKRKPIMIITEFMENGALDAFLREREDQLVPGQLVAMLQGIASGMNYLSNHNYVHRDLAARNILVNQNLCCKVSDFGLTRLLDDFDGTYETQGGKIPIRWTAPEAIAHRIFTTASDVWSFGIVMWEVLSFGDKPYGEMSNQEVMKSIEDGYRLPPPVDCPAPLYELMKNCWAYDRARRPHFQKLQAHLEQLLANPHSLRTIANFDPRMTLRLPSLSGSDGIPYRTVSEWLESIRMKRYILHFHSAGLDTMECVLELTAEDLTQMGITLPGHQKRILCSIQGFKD
The assay can be described thus: Kinobeads two-dose competition binding: EPHA1. To be noted: read-out: Lestaurtinib Drugmatrix value, Gene Name EPHA1.

Setting [1] is: EC50 with Correction, doses in nM, read-out: apparent Kd.
Where [2] appears, read: eight-dose curve fit, doses in nM.

T10 sequence (Q9UGJ0 whole entry): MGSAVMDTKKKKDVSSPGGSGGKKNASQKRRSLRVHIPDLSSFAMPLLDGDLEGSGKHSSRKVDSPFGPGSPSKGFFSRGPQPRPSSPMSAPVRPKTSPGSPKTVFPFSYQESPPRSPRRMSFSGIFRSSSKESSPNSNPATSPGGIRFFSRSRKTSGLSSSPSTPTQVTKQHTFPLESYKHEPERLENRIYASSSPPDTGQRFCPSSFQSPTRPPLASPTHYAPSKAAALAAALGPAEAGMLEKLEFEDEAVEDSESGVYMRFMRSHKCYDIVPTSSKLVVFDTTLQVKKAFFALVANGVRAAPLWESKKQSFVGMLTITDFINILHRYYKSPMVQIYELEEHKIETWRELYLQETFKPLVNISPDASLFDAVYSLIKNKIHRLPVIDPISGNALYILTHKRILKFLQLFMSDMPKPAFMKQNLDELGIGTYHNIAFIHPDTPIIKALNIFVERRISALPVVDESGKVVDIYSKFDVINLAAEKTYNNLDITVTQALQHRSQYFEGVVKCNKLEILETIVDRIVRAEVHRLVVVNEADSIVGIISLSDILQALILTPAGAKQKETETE
T10 sequence (Q13131 whole entry partner): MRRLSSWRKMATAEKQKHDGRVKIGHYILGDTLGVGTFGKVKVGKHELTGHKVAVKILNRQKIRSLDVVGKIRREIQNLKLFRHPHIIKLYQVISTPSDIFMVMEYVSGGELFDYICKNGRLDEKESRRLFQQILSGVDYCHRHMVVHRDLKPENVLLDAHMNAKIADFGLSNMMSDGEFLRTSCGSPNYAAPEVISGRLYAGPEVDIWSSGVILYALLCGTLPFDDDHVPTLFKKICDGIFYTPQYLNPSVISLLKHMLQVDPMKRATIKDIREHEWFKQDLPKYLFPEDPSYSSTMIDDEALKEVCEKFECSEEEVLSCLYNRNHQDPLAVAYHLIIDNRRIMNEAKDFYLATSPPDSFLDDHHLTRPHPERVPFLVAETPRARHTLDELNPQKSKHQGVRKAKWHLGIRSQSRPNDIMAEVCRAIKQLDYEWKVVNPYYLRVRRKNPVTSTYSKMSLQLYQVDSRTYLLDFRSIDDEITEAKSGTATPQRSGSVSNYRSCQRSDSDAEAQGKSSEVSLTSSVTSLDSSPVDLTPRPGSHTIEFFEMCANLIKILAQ
T10 sequence (Q9Y478 2-270 partner limits assumed): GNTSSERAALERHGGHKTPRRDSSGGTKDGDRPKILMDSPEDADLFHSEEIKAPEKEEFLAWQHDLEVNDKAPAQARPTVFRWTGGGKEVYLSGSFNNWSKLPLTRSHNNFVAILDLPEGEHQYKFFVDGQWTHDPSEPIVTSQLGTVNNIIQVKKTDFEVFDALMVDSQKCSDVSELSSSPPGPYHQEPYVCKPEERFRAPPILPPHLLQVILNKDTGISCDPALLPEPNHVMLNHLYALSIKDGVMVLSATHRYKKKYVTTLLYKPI
T1 sequence (O43353 whole entry): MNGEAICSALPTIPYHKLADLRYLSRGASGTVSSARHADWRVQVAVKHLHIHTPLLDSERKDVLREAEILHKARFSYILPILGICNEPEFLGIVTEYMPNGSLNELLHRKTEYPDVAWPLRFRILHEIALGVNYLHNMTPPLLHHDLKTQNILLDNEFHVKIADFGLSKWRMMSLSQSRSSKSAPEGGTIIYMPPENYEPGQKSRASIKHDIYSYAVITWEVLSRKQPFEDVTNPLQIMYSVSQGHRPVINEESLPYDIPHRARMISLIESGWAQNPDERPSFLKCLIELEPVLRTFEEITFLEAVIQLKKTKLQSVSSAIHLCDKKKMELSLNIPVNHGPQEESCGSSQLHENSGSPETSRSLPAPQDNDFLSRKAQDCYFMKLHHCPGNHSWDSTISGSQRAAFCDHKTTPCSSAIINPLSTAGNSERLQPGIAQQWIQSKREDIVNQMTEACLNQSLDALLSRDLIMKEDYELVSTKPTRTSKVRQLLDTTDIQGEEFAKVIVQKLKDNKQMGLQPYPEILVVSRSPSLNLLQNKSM

The term EC50 denotes the midpoint of the concentration-response curve. Low readings indicate greater potency, high ones weaker potency. Regarding `NCc1ccc(-c2nc(-c3ccncc3)c(-c3ccc(Cl)c(O)c3)[nH]2)cc1` [SB-476429-A], the “Relative Intensity 0.3nM” value worked out at 0.9341 at RIPK2 (0.3nM compound, DMSO = 1) and 0.9776 at TGFBR2 (0.3nM compound, DMSO = 1). Also, the “Relative Intensity 1nM” value is listed as 0.8676 at RIPK2 (1nM compound, DMSO = 1) and 1.003 on TGFBR2 (1nM compound, DMSO = 1). Moreover, the “Relative Intensity 3nM” value on RIPK2 (3nM compound, DMSO = 1) was 0.8459; at TGFBR2 (3nM compound, DMSO = 1), 1.034. In addition, the “Relative Intensity 10nM” value is listed as 0.8036 at RIPK2 (10nM compound, DMSO = 1) and 1.093 at TGFBR2 (10nM compound, DMSO = 1). The “Relative Intensity 30nM” value on RIPK2 (30nM compound, DMSO = 1) was 0.6574; at TGFBR2 (30nM compound, DMSO = 1), 0.9102. The “Relative Intensity 100nM” value on RIPK2 (100nM compound, DMSO = 1) was 0.3411; on TGFBR2 (100nM compound, DMSO = 1) it was 0.8621. For the same compound, the “Relative Intensity 300nM” value was 0.1841 at RIPK2 (300nM compound, DMSO = 1) and 0.7152 at TGFBR2 (300nM compound, DMSO = 1). In addition, the “Relative Intensity 1000nM” value at RIPK2 (1000nM compound, DMSO = 1) is 0.1065; on TGFBR2 (1000nM compound, DMSO = 1) it was 0.41. Moreover, the Kd at RIPK2 (setting [1]) is 28.8 nM; at TGFBR2 (setting [1]) it was 767 nM. The concentration giving a half-maximal response (EC50) stood at 55.9 nM on RIPK2 (setting [2]) and 871 nM at TGFBR2 (setting [2]).

As to `C[C@]12O[C@H](C[C@]1(O)CO)n1c3ccccc3c3c4c(c5c6ccccc6n2c5c31)CNC4=O` [Lestaurtinib], the potency estimated from few doses at HSP90B1 is 979 nM; at ERN2 it was 346 nM; on ACAD11, 890 nM; on PAK6, 151 nM; on CSK, 526 nM; at PRKAR2A, 979 nM. Moreover, the potency estimated from few doses on FYN was 817 nM; on PRKAG2, 888 nM (2×) and 629 nM and 352 nM and 850 nM and 720 nM; at EPHA1, 297 nM.
